# From US20260327243A1, “SPIRO-HETEROCYCLIC INHIBITORS OF KRAS G12C MUTANT PROTEINS AND USES THEREOF” (AMGEN INC., priority 2023, published 2026)
# How the values were obtained:
# [1] = biological target: KRAS^G12C (Homo sapiens, UniProt P01116, C118A/G12C); assay: Coupled Nucleotide Exchange Assay; assay type: biochemical; settings: GDP-bound KRAS (aa 1-169) G12C/C118A; 2 h compound pre-incubation; SOS-mediated exchange, 30 min; cRAF binding (AlphaLISA)
# How it was run: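 GDP-bound His-tagged KRAS aa 1-169 (G12C/C118A) pre-incubated 2 h with compound in 25 mM HEPES pH 7.4, 10 mM MgCl2, 0.01% Triton X-100 (±0.1% BSA), then SOS (aa 564-1049) plus GTP added for 30 min. GST-cRAF RBD binding read by AlphaLISA; DMSO-normalized, 4-parameter fit gives IC50.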
# [2] = test system: A549 cells; assay: Cell Viability Assay, A549; assay type: cell-based; settings: human lung carcinoma, 72 h, CellTiter-Glo
# Experimental: (§1) MIA PaCa-2 (human pancreatic carcinoma; ATCC CRL-1420) or A549 (human lung carcinoma; ATCC CCL-185) cells were cultured in RPMI 1640 medium containing 10% fetal bovine serum and 1×penicillin/streptomycin/L-glutamine. Cells were seeded in 384-well plates at a density of 1.67E+04 cells/mL and incubated at 37° C., 5% CO2, overnight. Serially-diluted compound or DMSO was added to the cells, and plates were incubated at 37° C., 5% CO2 for 72 h. Cell viability was measured using a CellTiter-Glo® Luminescent Cell Viability Assay kit (Promega) according to the manufacturer's protocol. The luminescence signal of treated samples was normalized to DMSO control, and data were analyzed using a 4-parameter logistic model to calculate IC50 values.
# (§2) The following data (Table 3) categorizes the IC50 of each compound for inhibiting enzymatic activity of KRAS^G12C in the indicated cells.
# [3] = test system: MIA PaCa-2 cells; assay: Cell Viability Assay, MIA PaCa-2; assay type: cell-based; settings: human pancreatic carcinoma, CellTiter-Glo
# Experimental: as §1, §2
# Sequence of KRAS^G12C (P01116 1-169 isoform P01116-2 G12C/C118A): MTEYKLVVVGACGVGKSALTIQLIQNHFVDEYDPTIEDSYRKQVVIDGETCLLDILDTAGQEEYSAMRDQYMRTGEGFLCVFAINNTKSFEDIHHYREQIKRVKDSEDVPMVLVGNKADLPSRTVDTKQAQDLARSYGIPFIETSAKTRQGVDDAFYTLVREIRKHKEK
SMILES,IC50 [1] [nM],IC50 ([2]; A549) [nM],"IC50 ([3]; Homo sapiens, MIA PaCa-2, 72 h) [nM]",IC50 ([3]; 72 h) [nM],IC50 [2] [nM]
"C=CC(=O)N1CCN(C2CN(c3cc(N4CCC5(CC4)OC(C)C=C5C)nc(C(F)(F)F)c3C#N)C2)CC1 (single isomer, unassigned) [Compound 3-054-1]",128,> 5000,,603,
"C=CC(=O)N1CCN(C2CN(c3cc(N4CCC5(CC4)OC(C)C=C5C)nc(C(F)(F)F)c3C#N)C2)CC1 (single isomer, unassigned) [Compound 3-054-2]",381,,,1490,> 5000
"C=CC(=O)N1CCN(C2CN(c3cc(N4CCC5(CC4)O[C@H](C)C=C5Cl)nc(C(F)(F)F)c3C#N)C2)CC1 (single isomer, unassigned) [Compound 3-067-1]",527,> 5000,1310,,
"C=CC(=O)N1CCN([C@@H]2CN(c3cc(N4CCC5(CC4)OCc4ncsc45)nc(C(F)(F)F)n3)[C@@H]2C)CC1 [Compound 3-001, 1-(4-((2R,3R)-1-(6-(4H-Spiro[furo[3,4-d]thiazole-6,4′-piperidin]-1′-yl)-2-(trifluoromethyl)pyrimidin-4-yl)-2-methylazetidin-3-yl)piperazin-1-yl) prop-2-en-1-one]",376,> 5000,665,,
"C=CC(=O)N1CCN([C@@H]2CN(c3cc(N4CCC5(CC4)OCCc4ncsc45)nc(C(F)(F)F)n3)[C@@H]2C)CC1 [Compound 3-002, 1-(4-((2R,3R)-1-(6-(6′,7′-Dihydrospiro[piperidine-4,4′-pyrano[4,3-d]thiazol]-1-yl)-2-(trifluoromethyl)pyrimidin-4-yl)-2-methylazetidin-3-yl)piperazin-1-yl)prop-2-en-1-one]",315,> 5000,625,,
"C=CC(=O)N1CCN(C2CN(c3cc(N4C5CCC4CC4(CCCO4)C5)nc(C(F)F)c3C)C2)CC1 (stereo not shown) [Compound 3-071, 1-(4-(1-(2-(difluoromethyl)-6-(dihydro-3′H-8-azaspiro[bicyclo[3.2.1]octane-3,2′-furan]-8-yl)-3-methylpyridin-4-yl)azetidin-3-yl)piperazin-1-yl)prop-2-en-1-one]",2990,,,,
"C=CC(=O)N1CCN(C2CN(c3cc(N4CCC5(C=CCOC5)CC4)nc(C(F)F)c3C)C2)CC1 [Compound 3-072, 1-(4-(1-(2-(difluoromethyl)-3-methyl-6-(2-oxa-9-azaspiro[5.5]undec-4-en-9-yl)pyridin-4-yl)azetidin-3-yl)piperazin-1-yl)prop-2-en-1-one]",4900,,,,
"C=CC(=O)N1CCN([C@@H]2CN(c3cc(N4CCC5(C=CCC5)CC4)nc(C(F)(F)F)n3)[C@@H]2C)CC1 [Compound 3-073, 1-(4-((2R,3R)-1-(6-(8-Azaspiro[4.5]dec-1-en-8-yl)-2-(trifluoromethyl)pyrimidin-4-yl)-2-methylazetidin-3-yl)piperazin-1-yl) prop-2-en-1-one]",4300,,,,
"C=CC(=O)N1CCN([C@@H]2CN(c3cc(N4CCC5(CC4)OCCc4nccc(C)c45)nc(C(F)(F)F)n3)[C@@H]2C)CC1 [Compound 3-085, 1-(4-((2R,3R)-2-methyl-1-(6-(4′-methyl-7′,8′-dihydrospiro[piperidine-4,5′-pyrano[4,3-b]pyridin]-1-yl)-2-(trifluoromethyl)pyrimidin-4-yl)azetidin-3-yl)piperazin-1-yl)prop-2-en-1-one]",,,,180,> 5000
"C=CC(=O)N1CCN([C@@H]2CN(c3cc(N4CCC5(CC4)COc4nccc(C)c45)nc(C(F)(F)F)n3)[C@@H]2C)CC1 [Compound 3-092, 1-(4-((2R,3R)-2-methyl-1-(6-(4-methyl-1′H-spiro[furo[2,3-b]pyridine-3,4′-piperidin]-1′-yl)-2-(trifluoromethyl)-4-pyrimidinyl)-3-azetidinyl)-1-piperazinyl)-2-propen-1-one]",2400,,,,

# Continued, values first:
IC50 [1] [nM],IC50 ([2]; A549) [nM],"IC50 ([3]; Homo sapiens, MIA PaCa-2, 72 h) [nM]",IC50 ([3]; 72 h) [nM],IC50 [2] [nM],SMILES
406,> 5000,1090,,,"C=CC(=O)N1CCN([C@@H]2CN(c3cc(N4CCC5(OCC=C5C)C(C)C4)nc(C(F)(F)F)n3)[C@@H]2C)CC1 (relative stereo) [Compound 3-060, 1-(4-((2R,3R)-1-(6-((5R,6S)-4,6-Dimethyl-1-oxa-8-azaspiro[4.5]dec-3-en-8-yl)-2-(trifluoromethyl)pyrimidin-4-yl)-2-methylazetidin-3-yl)piperazin-1-yl) prop-2-en-1-one]"
48,> 5000,78,,,"C=CC(=O)N1CCN([C@@H]2CN(c3cc(N4CC[C@]5(C[C@H]4C)OC[C@@H](CO)n4ncc(C)c45)nc(C(F)(F)F)n3)[C@@H]2C)CC1 (single isomer, unassigned) [Compound 3-087-1]"
87,> 5000,142,,,"C=CC(=O)N1CCN([C@@H]2CN(c3cc(N4CC[C@]5(C[C@H]4C)OC[C@H](CO)n4ncc(C)c45)nc(C(F)(F)F)n3)[C@@H]2C)CC1 (single isomer, unassigned) [Compound 3-087-2]"
106,> 5000,189,,,"C=CC(=O)N1CCN([C@@H]2CN(c3cc(N4CC[C@]5(C[C@H]4C)OC[C@@H](CO)n4ncc(C)c45)nc(C(F)F)n3)[C@@H]2C)CC1 (single isomer, unassigned) [Compound 3-088-1]"
72,> 5000,128,,,"C=CC(=O)N1CCN([C@@H]2CN(c3cc(N4CC[C@]5(C[C@H]4C)OC[C@H](CO)n4ncc(C)c45)nc(C(F)F)n3)[C@@H]2C)CC1 (single isomer, unassigned) [Compound 3-088-2]"
42,> 5000,102,,,"C=CC(=O)N1CCN([C@@H]2CN(c3cc(N4CC[C@]5(C[C@H]4C)OC[C@H](COC)n4ncc(C)c45)nc(C(F)(F)F)n3)[C@@H]2C)CC1 (single isomer, unassigned) [Compound 3-089-1]"
145,> 5000,193,,,"C=CC(=O)N1CCN([C@@H]2CN(c3cc(N4CC[C@]5(C[C@H]4C)OC[C@@H](COC)n4ncc(C)c45)nc(C(F)F)n3)[C@@H]2C)CC1 (single isomer, unassigned) [Compound 3-090-1]"
54,> 5000,331,,,"C=CC(=O)N1CCN([C@@H]2CN(c3cc(N4CC[C@]5(C[C@H]4C)OCCc4ncsc45)nc(C(F)(F)F)n3)[C@@H]2C)CC1 (single isomer, unassigned) [Compound 3-091-1]"
275,,625,,,"C=CC(=O)N1CCN([C@@H]2CN(c3cc(N4CCC5(CC4)OCCC=C5C)nc(C(F)(F)F)n3)[C@@H]2C)CC1 [Compound 3-008, 1-(4-((2R.3R)-2-methyl-1-(6-(5-methyl-1-oxa-9-azaspiro[5.5]undec-4-en-9-yl)-2-(trifluorometh-yl)pyrimidin-4-yl)azetidin-3-yl)-piperazin-1-yl)prop-2-en-1-one]"
353,,,,,C=CC(=O)N1CCN([C@@H]2CN(c3cc(N4CCC5(CC4)OCc4nccc(C)c45)nc(C(F)F)n3)[C@@H]2C)CC1 [Compound 3-080]
2910,,,,,"C=CC(=O)N1CCN([C@@H]2CN(c3cc(N4CCC5(CC4)COc4nccc(C)c45)nc(C(F)F)n3)[C@@H]2C)CC1 [Compound 3-086, 1-(4-((2R,3R)-1-(2-(difluoromethyl)-6-(4-methyl-2H-spiro[furo[2.3-b]pyridine-3,4′-piperidin]-1′-yl)pyrimidin-4-yl)-2-methylazetidin-3-yl)piperazin-1-yl)prop-2-en-1-one]"
